Experimental data reported in US20030119895A1, “Methods using a combination of a 3-heteroaryl-2-indolinone and a cyclooxygenase-2 inhibitor for the treatment of neoplasia” (Pharmacia Corporation, priority 1998, published 2003).

Legend:
[1] = test system: HUV-EC-C cells (human umbilical vein endothelial cells); experiment: HUV-EC-C Assay, a-FGF (ECGF)-stimulated [3H] thymidine incorporation; type: cell-based; conditions: Mitogenesis in Endothelial Cells
Procedure: The following protocol may also be used to measure the composition's activity:
1. […] After cells have detached from the flask, add an equal volume of assay medium and transfer to a 50 ml sterile centrifuge tube (Fisher Scientific; catalogue no. 05-539-6).
2. Wash the cells with about 35 ml assay medium in the 50 ml sterile centrifuge, tube by adding the assay medium, centrifuge for 10 minutes at approximately 200× g, aspirate the supernatant, and resuspend with 35 ml D-PBS. Repeat the wash two more times with D-PBS, resuspend the cells in about 1 ml assay medium/15 cm^2 of tissue culture flask. Assay medium consists of F12K medium (Gibco BRL; catalogue no. 21127-014)+0.5% heat-inactivated fetal bovine serum. Count the cells with a Coulter Counter.RTM.v Coulter Electronics, Inc.) and add assay medium to the cells to obtain a concentration of 0.8-1.0×10^5 cells/ml.
3. Add cells to 96-well flat-bottom plates at 100 μl/well or 0.8-1.0×10^4 cells/well; incubate about 24 h at 37° C., 5% CO2.
1. Make up two-fold drug titrations in separate 96-well plates, generally 50 μM on down to 0 μM. Use the same assay medium as mentioned in day 0, step 2 above. Titrations are made by adding […] of drug at 200 μM (4× the final well concentration) to the top well of a particular plate column. Since the stock drug concentration is usually 20 mM in DMSO, the 200 μM drug concentration contains 2% DMSO. Therefore, diluent made up to 2% DMSO in assay medium (F12K+0.5% fetal bovine serum) is used as diluent for the drug titrations in order to dilute the drug but keep the DMSO concentration constant. Add this diluent to the remaining wells in the column at 60 μl/well. Take 60 μl from the 120 μl of 200 μM drug dilution in the top well of the column and mix with the 60 μl in the second well of the column. Take 60 μl from this well and mix with the 60 μl in the third well of the column, and so on until two-fold titrations are completed. When the next-to-the-last well is mixed, take 60 μl of the 120 μl in this well and discard it. Leave the last well with 60 μl of DMSO/media diluent as a non-drug-containing control. Make 9 columns of titrated drug, enough for triplicate wells each for 1) VEGF (obtained from Pepro Tech Inc., catalogue no. 100-200, 2) endothelial cell growth factor (ECGF) (also known as acidic fibroblast growth factor, or aFGF) (obtained from Boehringer Mannheim Biochemica, catalogue no. 1439 600), and assay media control. ECGF comes as a preparation with sodium heparin.
2. Transfer 50 μl/well of the drug dilutions to the 96-well assay plates containing the 0.8-1.0×10^4 cells/100 μl/well of the HUV-EC-C cells from day 0 and […] incubate ~2 h at 37° C., 5% CO2.
3. In triplicate, add 50 μl/well of 80 ng/ml VEGF, 20 ng/ml ECGF, or media control to each drug condition. As with the drugs, the growth factor concentrations are 4× the desired final concentration. Use the assay media from day 0 step 2 to make the concentrations of growth factors. Incubate approximately 24 hours at 37° C., 5% CO2. Each well will have 50 μl drug dilution, 50 μl growth factor or media, and 100 ul cells,=200 ul/well total. Thus the 4× concentrations of drugs and growth factors become 1× once everything has been added to the wells.
1. Add ^3H-thymidine (Amersham; catalogue no. TRK-686) at 1 μCi/well (10 μl/well of 100 μCi/ml solution made up in RPMI media+10% heat-inactivated fetal bovine serum) and incubate about 24 h at 37° C., 5% CO2.
Note: ^3H-thymidine is made up in RPMI media because all of the other applications for which we use the ^3H-thymidine involve experiments done in RPMI. The media difference at this step is probably not significant. RPMI was obtained from Gibco BRL, catalogue no. 11875-051.
1. Freeze plates overnight at −20° C.
1. Thaw plates and harvest with a 96-well plate harvester (Tomtec Harvester 96.RTM.) onto filter mats (Wallac; catalogue no. 1205-401); read counts on a Wallac Betaplate™ liquid scintillation counter.

[2] = test system: HUV-EC-C cells (human umbilical vein endothelial cells); experiment: HUV-EC-C Assay, VEGF-stimulated [3H] thymidine incorporation; type: cell-based; conditions: Mitogenesis in Endothelial Cells

Row | SMILES | IC50 [1] [µM] | IC50 [2] [µM] | IC50 ([2]; Homo sapiens, HUVEC) [µM] | IC50 ([1]; Homo sapiens, HUVEC) [µM]
1 | O=C1Nc2ccccc2C1=Cc1cccn1-c1ccc(Cl)cc1 [SU5462] | 0.8 | 0.5 | – | –
2 | O=C1Nc2ccccc2C1=Cc1ccc(I)o1 [SU5409] | – | 26 | – | –
3 | O=C1Nc2ccc(Cl)cc2C1=Cc1ccc(Br)cc1 [SU4972, 3-(4-Bromobenzylidenyl)-5-chloro-2-indolinone] | 1.4 | – | – | –
4 | O=C1Nc2ccccc2C1=Cc1ccco1 [SU4798, 3-[(furan-2-yl)methylene]-2-indolinone] | – | – | 43.2 | –
5 | CCOC(=O)CCc1c(C(=O)OCC)[nH]c(C=C2C(=O)Nc3ccccc32)c1CC(=O)OCC [SU5454, 3-[(5-Ethoxycarbonyl-4-ethoxycarbonylethyl-3-ethoxycarbonylmethylpyrrol-2-yl)methylene]-2-indolinone] | – | – | 3.8 | 3.4
6 | CCOC(=O)c1c(C)[nH]c(C=C2C(=O)Nc3ccccc32)c1C [SU5408, 3-[(2,4-Dimethyl-3-ethoxycarbonylpyrrol-5-yl)methylene]-2-indolinone] | – | – | < 0.8 | 22.7
7 | CSc1ccc(C=C2C(=O)Nc3ccccc32)s1 [SU5419, 3-[(2-Methylmercaptothien-5-yl)methylene]-2-indolinone] | – | – | 0.7 | –
8 | Cc1cnc(C=C2C(=O)Nc3ccccc32)[nH]1 [SU5468, 3-[(5-Methylimidazol-2-yl)methylene]-2-indolinone] | – | – | 0.54 | 8.7
9 | O=C1Nc2ccccc2C1=Cc1sccc1Br [SU5418, 3-[(3-Bromothiene-2-yl)methylene]-2-indolinone] | – | – | 13.6 | 40
10 | O=C1Nc2ccccc2C1=Cc1ccco1 [SU5429, 3-[(Furan-2-yl)methylene]-2-indolinone] | – | – | 27.6 | –
11 | CCc1c(C)[nH]c(C=C2C(=O)Nc3ccccc32)c1C [SU5477, 3-[(4-Ethyl-3,5-dimethylpyrrol-2-yl)methylene]-2-indolinone] | – | – | 0.05 | 37.8
12 | Cc1c(C=O)[nH]c(C=C2C(=O)Nc3ccccc32)c1C [SU5405, 3-[(3,4-Dimethyl-2-formylpyrrole-5-yl)methylene)-2-indolinone] | – | – | 0.9 | 0.6
13 | O=C1Nc2ccccc2C1=Cc1cccs1 [SU5208, 3-[(Thien-2-yl)methylene]-2-indolinone] | – | – | 2.9 | 130
14 | CCc1ccc(C=C2C(=O)Nc3ccccc32)s1 [SU5451, 3-[(2-Ethylthien-5-yl)methylene]-2-indolinone] | – | – | 1.2 | 30
15 | CN(C)c1ccc(C=C2C(=O)N(C)c3ccccc32)cc1 [SU4952, 3-(4-Dimethylaminobenzylidenyl)-1-methyl-2-indolinone] | – | – | 25.6 | 19.3
16 | CC(=O)Nc1ccc(C=C2C(=O)Nc3ccccc32)cc1 [SU4799, 3-(4-acetamidobenzylidenyl)-2-indolinone] | – | – | 19.9 | –
17 | COc1ccccc1C=C1C(=O)Nc2ccccc21 [SU4949, 3-(2-Methoxybenzylidenyl)-2-indolinone] | 3.7 | 3.4 | – | –
18 | O=C1Nc2ccccc2C1=Cc1ccc(Br)o1 [SU5438, 3-[(5-Bromofuran-2-yl)methylene]-2-indolinone] | – | – | 39.8 | 33
19 | CCOC(=O)c1c[nH]c(C=C2C(=O)Nc3ccccc32)c1C [SU5463] | – | – | 0.14 | 7.9
20 | O=C1Nc2ccccc2C1=Cc1ccc(-c2cc(C(F)(F)F)cc(C(F)(F)F)c2)o1 [SU5217] | 10.5 | 9.6 | – | –
21 | CN(C)c1c(C=C2C(=O)Nc3ccccc32)cc(C=C2C(=O)Nc3ccccc32)c(N(C)C)c1C#N [SU5218, 2,6-Di-(dimethylamino)-3,5-di-[(indolin-2-one-3-ylidenyl)methyl]-phenylcyanide] | – | – | 2.4 | 2.7
22 | Cc1c[nH]c(C=C2C(=O)Nc3ccccc32)c1C [SU5406, 3-[(3,4-Dimethylpyrrol-2-yl)methylene]-2-indolinone] | – | – | < 0.8 | –
23 | Cc1cc(C=C2C(=O)Nc3ccccc32)oc1C [SU5421, 3-[(2,3-Dimethylfuran-5-yl)methylene]-2-indolinone] | – | – | 11.4 | –
